According to patent publication US12053480B2, “Methods and pharmaceutical compositions for treating peripheral demyelinating diseases” (INSERM (INSTITUT NATIONAL DE LA SANTE ET DE LA RECHERCHE …, priority 2015, dated 2024):

Key:
mSC mitochondria [1] = experiment: Mitochondrial motility imaging (mito-dsRed2) in mSC of mouse sciatic nerve; assay type: in vivo; settings: for loss of mitochondrial motility after nerve crush: 5 hours after nerve injury, TRO19622 30 minutes before crush
Protocol: (§1) Mice were anesthetized with isoflurane inhalation and placed under a Stemi2000 microscope (Zeiss). Incision area was shaved and cleaned using betadine solution. After incision, the gluteus superficialis and biceps femoris muscles were separated to reveal the cavity traversed by the sciatic nerve. The nerve was lift out using spatula and a thin glass needle filled with viral solution (8 μl) was introduced into the nerve with a micromanipulator. This solution was injected over 30 min with short pressure pulses using a Picospritzer III (Parker Hannifin) coupled to a pulse generator. After injection, the nerve was replaced into the cavity, the muscles were readjusted, and the wound was closed using clips (for further details see Gonzalez et al., 2014^3).
(§2) TRO19622 drug (Tocris bioscience, Ref. 2906) was diluted in ethanol to 20 mM and then, the solution was diluted in sterile PBS to 20 μM. TRO19622 treatments were realized by 3 mg/kg intraperitoneal (IP) injections of 20 mM solution or by intra sciatic nerve injections of 2 μl of drug solution 2 μM using a Hamilton syringe or a glass needle in sterile conditions 30 minutes before multiphoton image acquisitions or immunohistochemistry and demyelination studies respectively. Methyl jasmonate drug (Sigma-Aldrich, Ref. 392707) was diluted in 1 ml of sterile PBS to 1M or 3M. Methyl jasmonate treatments were realized by intra sciatic nerve injections of 1 μl of drug solution using a glass needle and micromanipulator in sterile conditions following the same virus injections procedure (see in vivo virus injection in the sciatic nerve method) two hours before multiphoton image acquisition. […] All drug concentrations were previously evaluated by Bordet et al, 2007^5; Goldin et al, 2008^6; Sharov et al, 2007^7.
(§3) First injected mouse was anesthetized with 5% of isoflurane a 1.5% of oxygen into the anesthesia system box (World Precision Instruments, Ref. EZ-B800) for 5 minutes. Anesthesia controls were realized^8. Then, mouse was placed in anesthesia mask and the incision area was shaved and cleaned with betadine and ethanol 70% solution. Incision was realized using a scalpel and the skin was retracted using forceps in order to expose the gluteus superficialis and bleeps femoris muscles. Next, the connective tissue that connects both muscles was cut and the sciatic nerve was gently lifted out using a spatula. A flexible bridge was slide below sciatic nerve and it was placed into a plastic first pool fixed to the bridge. Mouse was placed under the multiphoton microscope, the bridge was fixed using magnetic brackets to avoid physiological movement and mouse legs were fixed using clippers. Microscope dark box temperature is controlled to 37° C. during all time-lapse imaging. Finally, a second pool was fixed to the first pool using a drop of agarose low melting 3% (Promega, Ref. V2111) in Leibovitz's L15 medium (Gibco Life Technologies) and filled with deionized water to immerse the objectives 20× or 63× (Carl Zeiss Microscopy).
All time-lapse images were obtained with a multiphoton microscope Zeiss LSM 7 MP OPO. Mitochondria motility images were acquired by time-lapse recording of one image every five minutes during five hours at 920 nm. GCaMP2 and SypHer probe images were acquired by time-lapse recording of one image every fifteen minutes during five hours at 985 nm. Images were acquired to constant 1% of laser intensity to 100 msec of acquisition time with 512×512 resolution and 10 images of z-stack of 20 μm. […]

[2] = tested on: myelinating Schwann cells; experiment: mSC demyelination morphology (confocal microscopy) four days after nerve crush; assay type: in vivo, mouse; settings: for number of myelinating cell remaining after crush: four days after crush
Protocol: as §1, §2
Finally we also investigated the demyelination using typical defects induced in the cellular morphology of mSC. Nerves expressing control or VDAC1 shRNAs were crushed to induce demyelination and four days later, when demyelination is maximal, we analyzed the morphology of VDAC1-silenced mSC using confocal microscopy as described previously^19. mSC display long homogenous noodle-like morphology with a regular diameter but during demyelination, they acquire a heterogeneous morphology often alterning large structures (myelin ovoids) with thin processes and their extremities split in fine extensions.

phospho-c-jun = experiment: Immunohistochemistry of nuclear phospho-c-jun in mSC after nerve crush or MJ; assay type: in vivo, mouse; settings: for nuclear phospho-c-jun in mSC after nerve crush: immunohistochemistry, TRO19622 30 minutes prior crush
Protocol: The dissected nerve was washed in L15 medium, fixed in Zamboni's fixative (Stefanini et al., 1967^4) for 10 min at room temperature, washed in PBS, and incubated in successive glycerol baths (15, 45, 60, 66% in PBS) for 18 to 24 h each before freezing at −20° C. The nerves were cut in small pieces in 66% glycerol and the perineurium sheet removed. Small bundles of fibers were teased in double-distilled water on Superfrost slides, dried overnight at room temperature, and the slides stored at −20° C. For immunostaining, the teased fibers were incubated for 1 h at room temperature in blocking solution (10% goat serum, 0.2% TritonX100, and 0.01% sodium azide in PBS). Then, the samples were then incubated with anti-ECCD2 primary mouse antibody (1/100, BD biosciences, Ref. 610181), anti-phosphoS63-c-jun primary mouse antibody (1/200, BD Biosciences, Ref. 558036), anti-c-jun primary mouse antibody (1/200, BD Biosciences, Ref. 610326), anti-VDAC primary rabbit antibody (1/100, Cell Signaling, Ref. 4866) or/and MitoTracker Red (1/1000, Molecular Probes, Ref. M7515) in blocking solution overnight at 4° C. The next day, the samples were washed in PBS and incubated for 1 h at room temperature with secondary donkey antibodies coupled to Alexa488, Alexa 594 or Alexa647 (1/1600, Molecular probes) and TO-PRO-3 iodide (50 μM, Invitroge, Ref. T3605). Finally the samples were washed in PBS and mounted in Immu-mount (Thermo Scientific). Images were acquired at room temperature using a 20× or 40× objective, a Zeiss confocal microscope LSM710, and its associated software.
as §2
To go further we also selectively silenced VDAC1 in mSC and measured the expression level of nuclear phospho-c-jun by immunohistochemistry after nerve crush. […]

mSC mitochondria [3] = experiment: Mitochondrial pH imaging (mito-SypHer) in mSC of mouse sciatic nerve; assay type: in vivo
Protocol: as §1, §2
First injected mouse was anesthetized with 5% of isoflurane a 1.5% of oxygen into the anesthesia system box (World Precision Instruments, Ref. EZ-B800) for 5 minutes. Anesthesia controls were realized^8. Then, mouse was placed in anesthesia mask and the incision area was shaved and cleaned with betadine and ethanol 70% solution. […]

VDAC1 [4] = molecular target: T1, VDAC1 (Mus musculus, UniProt Q60932); experiment: Cytoplasmic calcium imaging (GCaMP2, multiphoton) in mSC of mouse sciatic nerve; assay type: in vivo; settings: for presence of cytoplasmic calcium in mSC after crush: cytoplasmic GCaMP2, after nerve crush
T1 construct: strongly expressed in mSC mitochondria; from tissue; host or cells: myelinating Schwann cells (mSC) of the sciatic nerve of living mice (wild type; db/db and +/db in A10)
Protocol: as §1, §2, §3
(§4) All time-lapse images were obtained with a multiphoton microscope Zeiss LSM 7 MP OPO. Mitochondria motility images were acquired by time-lapse recording of one image every five minutes during five hours at 920 nm. GCaMP2 and SypHer probe images were acquired by time-lapse recording of one image every fifteen minutes during five hours at 985 nm. Images were acquired to constant 1% of laser intensity to 100 msec of acquisition time with 512×512 resolution and 10 images of z-stack of 20 μm. Images were saved in Zeiss .czi format and processed using Image J program. For further details see Gonzalez et al., 201X^8
To characterize mitochondria physiology during the demyelination process we combined two in vivo methods. We used the nerve crush model to reliably induce demyelination in the mouse sciatic nerve and a viral approach^19 allowing the expression of different fluorescent probes selectively into mitochondria of myelinating Schwann cells (mSC) in mouse sciatic nerve. […]

[5] = tested on: phospho-bcl2, cleaved caspase-3; settings: after MJ treatment
Protocol: To investigate the signaling pathways induced by mitochondrial calcium release, sciatic nerves were treated with vehicle or TRO19622 before crush or with MJ without crush and phosphorylation-activated pathways were determined by western blot 4 hours or 12 hours after nerve crush or MJ treatment. […] While it is known that SC demyelination is not due to cell death but to a dedifferentiation process, we nevertheless checked mitochondria-related cell death factors in crushed or MJ treated nerves.

[6] = tested on: phospho-ERK1/2, phospho-p38, phospho-JNK and phospho-c-jun; experiment: Western blot of demyelination signaling pathways in sciatic nerve after crush or MJ; assay type: in vivo, mouse; settings: nerves not crushed; 4 or 12 hours after treatment
Protocol: as §2

VDAC1 [7] = molecular target: T1, VDAC1; experiment: Mitochondrial calcium imaging (mito-GCaMP2, multiphoton) in mSC of mouse sciatic nerve, nerve crush model; assay type: in vivo; settings: for mSC mitochondria calcium concentration: non-crushed nerves, two hours after injections, compared to vehicle injection; for mitochondrial calcium release in mSC after nerve crush: mito-GCaMP2, VDAC1 silenced or drug given before crush
Protocol: as §1, §2, §3, §4
To characterize mitochondria physiology during the demyelination process we combined two in vivo methods. We used the nerve crush model to reliably induce demyelination in the mouse sciatic nerve and a viral approach^19 allowing the expression of different fluorescent probes selectively into mitochondria of myelinating Schwann cells (mSC) in mouse sciatic nerve.

T1 sequence (Q60932 14-296): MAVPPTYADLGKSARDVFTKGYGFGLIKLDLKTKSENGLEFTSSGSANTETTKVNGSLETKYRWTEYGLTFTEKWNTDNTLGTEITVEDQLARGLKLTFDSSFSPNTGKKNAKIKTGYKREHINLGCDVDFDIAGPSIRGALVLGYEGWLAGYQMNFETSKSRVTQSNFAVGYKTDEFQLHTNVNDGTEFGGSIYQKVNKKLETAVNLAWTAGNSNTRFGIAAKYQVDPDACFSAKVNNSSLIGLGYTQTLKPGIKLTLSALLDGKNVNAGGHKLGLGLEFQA

Row | Compound | mitochondrial motility (mSC mitochondria [1]; without crush) | number of demyelinating cells ([2]; non-crushed sciatic nerves) | nuclear phospho-c-jun (phospho-c-jun; nerves treated with MJ) | mitochondrial pH (mSC mitochondria [3]; non-crushed nerves) | calcium presence in the cytoplasm (VDAC1 [4]; MJ treatment, non-crushed nerves) | phospho-bcl2 and cleaved caspase-3 levels [5] | phosphorylation-activated pathways and phospho-c-jun [6] | mSC mitochondria calcium concentration (VDAC1 [7]) | mSC mitochondria calcium concentration (VDAC1 [7]; listed as methyl jasmonate) | loss of mitochondrial motility after nerve crush (mSC mitochondria [1]) | number of myelinating cell remaining after crush [2] | nuclear phospho-c-jun in mSC after nerve crush (phospho-c-jun) | presence of cytoplasmic calcium in mSC after crush (VDAC1 [4]) | mitochondrial calcium release in mSC after nerve crush (VDAC1 [7]) | changes induced by nerve crush in mitochondrial motility not abrogated (mSC mitochondria [1]; after nerve crush) [%] | changes induced by nerve crush in mitochondrial pH not abrogated (mSC mitochondria [3]; after nerve crush) [%] | part of the calcium appearing in the cytoplasm after nerve crush that is not abolished (non-mitochondrial origin) (VDAC1 [4]; after nerve crush with VDAC1 silenced or blocked) [%] | mitochondrial calcium release in mSC after nerve crush (VDAC1 [7]; listed as VDAC shRNA3)
1 | CC/C=C\CC1C(=O)CCC1CC(=O)OC (centres unmarked) [MJ, methyl jasmonate] | decreased | significant increase | robust increase | increase | increased | Neither phospho-bcl2 nor cleaved caspase-3 levels were increased | significant increase | sharply decreased | induced mitochondrial calcium release | – | – | – | – | – | – | – | – | –
2 | VDAC1 shRNA2: VDAC1 shRNA sequence 2 GTTGGCTATAAGACGGATGAACT (Sigma-Aldrich, Ref. #TRCN0000012391), expressed from AAV vector (expressed from AAV vector) | – | – | – | – | – | – | – | – | – | significantly prevented | significant increase | strong reduction | more modest | significantly reduced | – | – | – | –
3 | VDAC1 shRNA3: VDAC1 shRNA sequence 3 ACCAGGTATCAAACTGACGTTCT (Sigma-Aldrich, Ref. #TRCN0000012392), expressed from AAV vector (expressed from AAV vector) | – | – | – | – | – | – | – | – | – | significantly prevented | significant increase | strong reduction | strongly reduced | completely inhibited | 20 | 12 | 13 | completely abolished
